One may read the EC50 as the concentration giving half of the maximal effect.

Some results are limits rather than exact numbers.

In one experiment the test system is SH-SY5Y M-currents (KCNQ2, KCNQ3 and KCNQ5). The experiment in a line: SH-SY5Y native cell line FLIPR assay (voltage-sensitive dye DiBAC). The format is cell-based, mouse neuroblastoma, rat glioma hybrid cell line. As to conditions: FLIPR assay, SH-SY5Y native cell line; Table 1; read-out: SH-SY5Y EC50. The method, boiled down:
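Response is peak DiBAC fluorescence change, normalised to the maximum from a positive control agent, sampled every 30 s over 25 min. Before compound addition, SH-SY5Y cells differentiated with PGE1 plus isomethylbutylxanthine were dye-loaded for 1 h in EBSS with […] DiBAC.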
Turning to `CC(C)(C)Cc1c(NC(=O)CC(F)(F)F)nc2ccc(C(F)(F)F)cn12` [Compound 60, 3,3,3-trifluoro-N-(3-neopentyl-6-(trifluoromethyl)imidazo[1,2-a]pyridin-2-yl)propanamide], the concentration for a half-maximal effect (EC50) is less than 500 nM.

On to `O=C(Cc1ccccc1)Nc1nc2ccc(C(F)(F)F)cn2c1CC1CCCCC1` [Compound 37, N-(3-(cyclohexylmethyl)-6-(trifluoromethyl)imidazo[1,2-a]pyridin-2-yl)-2-phenylacetamide], for which the EC50 was less than 500 nM.

As to `CC(C)(C)Cc1c(NC(=O)Cc2ccc(F)cc2)nc2ccc(C(F)(F)F)cn12` [Compound 21, 2-(4-fluorophenyl)-N-(3-neopentyl-6-(trifluoromethyl)imidazo[1,2-a]pyridin-2-yl)acetamide], the 50% effective concentration (EC50) is less than 500 nM.

For `CC(C)(C)Cc1c(NC(=O)C2CC2)nc2ccc(C(F)(F)F)cn12` [Compound 64, N-(3-neopentyl-6-(trifluoromethyl)imidazo[1,2-a]pyridin-2-yl)cyclopropanecarboxamide], the EC50 was in the range of 500 to 3000 nM.

Turning to `CCC(C)CC(=O)Nc1nc2ccc(C(F)(F)F)cn2c1CC(C)(C)C` (stereo not shown) [Compound 58, 3-methyl-N-(3-neopentyl-6-(trifluoromethyl)imidazo[1,2-a]pyridin-2-yl)pentanamide], the EC50 is less than 500 nM.

Take `CC(C)CCc1c(NC(=O)CC2(C)CCCC2)nc2ccc(C(F)(F)F)cn12` [Compound 45, N-(3-isopentyl-6-(trifluoromethyl)imidazo[1,2-a]pyridin-2-yl)-2-(1-methylcyclopentyl)acetamide]: the EC50 was less than 500 nM.

For the compound `CC(C)C(C)C(=O)Nc1nc2ccc(F)cn2c1Cc1ccc(C(F)(F)F)cc1` (stereo not shown) [Compound 30, N-(6-fluoro-3-(4-(trifluoromethyl)benzyl)imidazo[1,2-a]pyridin-2-yl)-2,3-dimethylbutanamide], the 50% effective concentration (EC50) was in the range of 500 to 3000 nM.

The experiment is the same for the next values; noted with them: FLIPR assay, SH-SY5Y native cell line; Table 2; read-out: SH-SY5Y EC50.
Regarding `O=C(Nc1nc2ccc(F)cn2c1-c1ccc(OC(F)(F)F)cc1)[C@H]1CCCO1` [Compound 243, (R)—N-(6-fluoro-3-(4-(trifluoromethoxy)phenyl)imidazo[1,2-a]pyridin-2-yl)tetrahydrofuran-2-carboxamide], the EC50 lay in the range of 3000 to 10000 nM.

With `O=C(CCC1CC1)Nc1nc2ccc(F)cn2c1-c1cccc(OC(F)(F)F)c1` [Compound 274, 3-cyclopropyl-N-(6-fluoro-3-(3-(trifluoromethoxy)phenyl)imidazo[1,2-a]pyridin-2-yl)propanamide], the concentration giving a half-maximal response (EC50) is less than 500 nM.

In the case of `CC(C)(C)CC(=O)Nc1nc2ccccn2c1-c1ccc(C(F)(F)F)cc1` [Compound 223, 3,3-dimethyl-N-(3-(4-(trifluoromethyl)phenyl)imidazo[1,2-a]pyridin-2-yl)butanamide], the 50% effective concentration (EC50) was less than 500 nM.

Regarding `O=C(CC1CCCC1)Nc1nc2ccccn2c1-c1ccc(F)cc1` [Compound 222, 2-cyclopentyl-N-(3-(4-fluorophenyl)imidazo[1,2-a]pyridin-2-yl)acetamide], the concentration for a half-maximal effect (EC50) is 500 to 3000 nM.

For “3-tert-butoxy-N-(6-fluoro-3-(4-(trifluoromethoxy)phenyl)imidazo yl)propanamide [Compound 261]”, the EC50 is less than 500 nM.

For `CC(C)(C)CC(=O)Nc1nc2ccc(F)cn2c1-c1ccc(Cl)cc1` [Compound 150, N-(3-(4-chlorophenyl)-6-fluoroimidazo[1,2-a]pyridin-2-yl)-3,3-dimethylbutanamide], the EC50 was less than 500 nM.

Turning to `CC(C)(C)CC(=O)Nc1nc2ccc(F)cn2c1-c1ccc(F)cc1` [Compound 103, N-(6-fluoro-3-(4-fluorophenyl)imidazo[1,2-a]pyridin-2-yl)-3,3-dimethylbutanamide], the half-maximal effective concentration (EC50) was less than 500 nM.

For `O=C(Cc1ccc(F)cc1)Nc1nc2cc(C(F)(F)F)ccn2c1-c1ccc(F)cc1F` [Compound 122, N-(3-(2,4-difluorophenyl)-7-(trifluoromethyl)imidazo[1,2-a]pyridin-2-yl)-2-(4-fluorophenyl)acetamide], the 50% effective concentration (EC50) lay in the range of 500 to 3000 nM.

Consider `CC(C)(C)OCC(=O)Nc1nc2ccc(F)cn2c1-c1ccc(C(F)(F)F)cc1` [Compound 206, 2-tert-butoxy-N-(6-fluoro-3-(4-(trifluoromethyl)phenyl)imidazo[1,2-a]pyridin-2-yl)acetamide], for which the EC50 fell in the range of 3000 to 10000 nM.

For the compound `O=C(CC(F)(F)F)Nc1nc2cc(C(F)(F)F)ccn2c1-c1ccccc1` [Compound 104, 3,3,3-trifluoro-N-(3-phenyl-7-(trifluoromethyl)imidazo[1,2-a]pyridin-2-yl)propanamide], the concentration for a half-maximal effect (EC50) fell in the range of 3000 to 10000 nM.

Regarding `CC1(CC(=O)Nc2nc3ccc(F)cn3c2-c2ccc(OC(F)(F)F)c(F)c2)CCCC1` [Compound 304, N-(6-fluoro-3-(3-fluoro-4-(trifluoromethoxy)phenyl)imidazo[1,2-a]pyridin-2-yl)-2-(1-methylcyclopentyl)acetamide], the 50% effective concentration (EC50) is less than 500 nM.

Regarding `O=C(Cc1ccc(Cl)cc1)Nc1nc2ccc(F)cn2c1-c1ccc(F)cc1` [Compound 145, 2-(4-chlorophenyl)-N-(6-fluoro-3-(4-fluorophenyl)imidazo[1,2-a]pyridin-2-yl)acetamide], the 50% effective concentration (EC50) lay within 500 to 3000 nM.

As to `O=C(CC1CC2CCC1C2)Nc1nc2ccc(F)cn2c1-c1ccc(F)cc1` (stereo not shown) [Compound 138, 2-(bicyclo[2.2.1]heptan-2-yl)-N-(6-fluoro-3-(4-fluorophenyl)imidazo[1,2-a]pyridin-2-yl)acetamide], the EC50 was less than 500 nM.

In the case of `O=C(CC1CC1)Nc1nc2ccc(F)cn2c1-c1ccc(F)cc1` [Compound 129, 2-cyclopropyl-N-(6-fluoro-3-(4-fluorophenyl)imidazo[1,2-a]pyridin-2-yl)acetamide], the concentration giving a half-maximal response (EC50) was 3000 to 10000 nM.

Staying with this experiment, now noted: FLIPR assay, SH-SY5Y native cell line; Table 5; read-out: SH-SY5Y EC50.
With `Cc1c(NC(=O)CC(C)(C)C)nc2ccc(F)cn12` [Compound 423, N-(6-fluoro-3-methylimidazo[1,2-a]pyridin-2-yl)-3,3-dimethylbutanamide], the concentration giving a half-maximal response (EC50) fell in the range of 3000 to 10000 nM.

The same experiment, now with this note: SH-SY5Y native cell line, FLIPR assay (Table 3); read-out: SH-SY5Y EC50.
Consider `Cc1ccc(-c2c(NC(=O)CC(C)(C)C)nc3ccc(F)cn23)nc1` [Compound 359, N-(6-fluoro-3-(5-methylpyridin-2-yl)imidazo[1,2-a]pyridin-2-yl)-3,3-dimethylbutanamide], for which the EC50 is 500 to 3000 nM.

Turning to `Cc1ccc2nc(NC(=O)CC(C)(C)C)c(-c3nc4ccccc4s3)n2n1` [Compound 382, N-(3-(benzo[d]thiazol-2-yl)-6-methylimidazo[1,2-b]pyridazin-2-yl)-3,3-dimethylbutanamide], the EC50 fell in the range of 3000 to 10000 nM.

As to `Cc1cccc2nc(NC(=O)CC(C)(C)C)c(-c3nc4ccccc4s3)n12` [Compound 392, N-(3-(benzo[d]thiazol-2-yl)-5-methylimidazo[1,2-a]pyridin-2-yl)-3,3-dimethylbutanamide], the concentration for a half-maximal effect (EC50) is 3000 to 10000 nM.

Consider `COc1ccc2nc(NC(=O)CC(C)(C)C)c(-c3nccs3)n2n1` [Compound 415, N-(6-methoxy-3-(thiazol-2-yl)imidazo[1,2-b]pyridazin-2-yl)-3,3-dimethylbutanamide], for which the EC50 lay within 3000 to 10000 nM.

For the compound `CC(CC(=O)Nc1nc2ccccn2c1-c1nccs1)C(F)(F)F` (stereo not shown) [Compound 408, 4,4,4-trifluoro-3-methyl-N-(3-(thiazol-2-yl)imidazo[1,2-a]pyridin-2-yl)butanamide], the EC50 lay in the range of 3000 to 10000 nM.

In the case of `CC(C)(C)CC(=O)Nc1nc2ccc(F)cn2c1-c1cccnc1` [Compound 348, N-(6-fluoro-3-(pyridin-3-yl)imidazo[1,2-a]pyridin-2-yl)-3,3-dimethylbutanamide], the 50% effective concentration (EC50) is 3000 to 10000 nM.

Values taken from patent publication US9018208B2, “Heterocycles as potassium channel modulators” (Icagen Inc., priority 2007, dated 2015).
